We go through three compounds from ChEMBL document CHEMBL5696442, “Discovery of type II inhibitors of TGFβ-activated kinase 1 (TAK1) and mitogen-activated protein kinase kinase kinase kinase 2 (MAP4K2)” (J Med Chem, 2015).

Test [1] deals with Protein kinase C iota type (Homo sapiens) (UniProt P41743). The experiment in a line: Inhibition of PRKCI (unknown origin) at 1 uM by Ambit Kinomescan binding assay relative to control; values are per cent of control.
For test [2], the target named is Phosphatidylinositol 4,5-bisphosphate 3-kinase catalytic subunit beta isoform (Homo sapiens) (UniProt P42338). The experiment in a line: Inhibition of PIK3CB (unknown origin) at 10 uM by Ambit Kinomescan binding assay.
Test [3] concerns the target SRSF protein kinase 2 (Homo sapiens) (UniProt P78362). In words: Inhibition of SRPK2 (unknown origin) at 10 uM by Ambit Kinomescan binding assay.
Test [4] deals with Wee1-like protein kinase 2 (Homo sapiens) (UniProt P0C1S8). The experiment in a line: Inhibition of WEE2 (unknown origin) at 10 uM by Ambit Kinomescan binding assay.
The target in test [5] is T1, PAN2-PAN3 deadenylation complex subunit PAN3 (Homo sapiens) (UniProt Q58A45).
T1 sequence (whole entry): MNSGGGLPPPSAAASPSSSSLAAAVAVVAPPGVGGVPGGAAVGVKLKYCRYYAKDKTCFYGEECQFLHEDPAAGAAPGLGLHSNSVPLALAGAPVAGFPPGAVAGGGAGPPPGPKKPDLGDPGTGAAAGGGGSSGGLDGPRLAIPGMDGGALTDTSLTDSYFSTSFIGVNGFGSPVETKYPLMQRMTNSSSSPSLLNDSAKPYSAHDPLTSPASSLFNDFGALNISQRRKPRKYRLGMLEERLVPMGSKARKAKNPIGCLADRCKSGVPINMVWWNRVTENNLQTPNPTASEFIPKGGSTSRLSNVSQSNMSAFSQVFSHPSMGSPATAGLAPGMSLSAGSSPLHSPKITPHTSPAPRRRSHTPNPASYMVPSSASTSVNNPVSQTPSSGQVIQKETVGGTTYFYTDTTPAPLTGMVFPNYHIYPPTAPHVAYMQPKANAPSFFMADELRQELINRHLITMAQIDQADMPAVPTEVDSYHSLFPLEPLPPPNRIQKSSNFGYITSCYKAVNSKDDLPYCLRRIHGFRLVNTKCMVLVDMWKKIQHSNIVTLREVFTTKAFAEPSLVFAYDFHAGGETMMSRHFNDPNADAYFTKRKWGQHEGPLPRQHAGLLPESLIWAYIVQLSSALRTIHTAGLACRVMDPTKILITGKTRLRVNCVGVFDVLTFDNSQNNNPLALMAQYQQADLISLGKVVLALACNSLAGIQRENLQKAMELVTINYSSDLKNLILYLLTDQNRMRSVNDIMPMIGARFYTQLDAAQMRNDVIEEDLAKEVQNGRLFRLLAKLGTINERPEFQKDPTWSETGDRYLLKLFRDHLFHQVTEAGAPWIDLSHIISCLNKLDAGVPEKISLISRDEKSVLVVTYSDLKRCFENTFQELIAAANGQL
The experiment in a line: Inhibition of PAN3 KD labeling site in human Huh-7 cells at 1 uM by KiNativ Profiling analysis relative to control. Type of test: cell-based.

Test [6] addresses T2, Phosphatidylinositol 5-phosphate 4-kinase type-2 alpha (Homo sapiens) (UniProt P48426).
T2 sequence (whole entry): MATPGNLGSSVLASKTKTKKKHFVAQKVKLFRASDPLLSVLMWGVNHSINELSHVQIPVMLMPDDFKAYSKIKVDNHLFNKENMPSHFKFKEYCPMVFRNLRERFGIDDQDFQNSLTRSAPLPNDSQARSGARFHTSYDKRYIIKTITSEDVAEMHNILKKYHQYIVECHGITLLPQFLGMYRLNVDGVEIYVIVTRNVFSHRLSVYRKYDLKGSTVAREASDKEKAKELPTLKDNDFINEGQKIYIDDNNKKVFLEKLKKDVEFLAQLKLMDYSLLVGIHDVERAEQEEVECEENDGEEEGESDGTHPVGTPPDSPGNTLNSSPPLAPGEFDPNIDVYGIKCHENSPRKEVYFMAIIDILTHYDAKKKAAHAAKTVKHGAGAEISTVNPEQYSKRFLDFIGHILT
The experiment in a line: Inhibition of PIP4K2A ATP labeling site harbouring TVKHGAGAEISTVNPEQYSK in human Huh-7 cell lysate at 1 uM by KiNativ Profiling analysis relative to control. Type of test: subcellular.

Test [7] addresses Calcium/calmodulin-dependent protein kinase type II subunit delta (Homo sapiens) (UniProt Q13557). In words: Inhibition of CaMK2d Lys1 labeling site harbouring IPTGQEYAAKIINTK in human Huh-7 cells at 1 uM by KiNativ Profiling analysis relative to control. Type of test: cell-based.

Active and inactive are the calls of the source. No cut-off for these calls is given here.

Sequence of Protein kinase C iota type (Homo sapiens) (P41743 whole entry, canonical isoform): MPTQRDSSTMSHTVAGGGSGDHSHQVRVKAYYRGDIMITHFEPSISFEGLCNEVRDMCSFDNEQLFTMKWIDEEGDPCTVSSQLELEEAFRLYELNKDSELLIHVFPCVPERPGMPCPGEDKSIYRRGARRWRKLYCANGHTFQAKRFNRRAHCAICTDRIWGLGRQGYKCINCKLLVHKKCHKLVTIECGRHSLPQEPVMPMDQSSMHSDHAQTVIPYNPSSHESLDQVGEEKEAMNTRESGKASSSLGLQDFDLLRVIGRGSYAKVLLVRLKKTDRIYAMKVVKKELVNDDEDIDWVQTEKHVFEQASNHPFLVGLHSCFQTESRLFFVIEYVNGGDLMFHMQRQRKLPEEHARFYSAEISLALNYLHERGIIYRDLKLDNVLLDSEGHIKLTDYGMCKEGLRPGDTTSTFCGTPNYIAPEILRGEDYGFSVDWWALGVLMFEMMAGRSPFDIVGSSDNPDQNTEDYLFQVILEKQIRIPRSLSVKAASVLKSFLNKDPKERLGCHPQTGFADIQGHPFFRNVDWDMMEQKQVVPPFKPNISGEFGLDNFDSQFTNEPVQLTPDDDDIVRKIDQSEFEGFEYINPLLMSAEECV
Sequence of SRSF protein kinase 2 (Homo sapiens) (P78362 whole entry, looked up): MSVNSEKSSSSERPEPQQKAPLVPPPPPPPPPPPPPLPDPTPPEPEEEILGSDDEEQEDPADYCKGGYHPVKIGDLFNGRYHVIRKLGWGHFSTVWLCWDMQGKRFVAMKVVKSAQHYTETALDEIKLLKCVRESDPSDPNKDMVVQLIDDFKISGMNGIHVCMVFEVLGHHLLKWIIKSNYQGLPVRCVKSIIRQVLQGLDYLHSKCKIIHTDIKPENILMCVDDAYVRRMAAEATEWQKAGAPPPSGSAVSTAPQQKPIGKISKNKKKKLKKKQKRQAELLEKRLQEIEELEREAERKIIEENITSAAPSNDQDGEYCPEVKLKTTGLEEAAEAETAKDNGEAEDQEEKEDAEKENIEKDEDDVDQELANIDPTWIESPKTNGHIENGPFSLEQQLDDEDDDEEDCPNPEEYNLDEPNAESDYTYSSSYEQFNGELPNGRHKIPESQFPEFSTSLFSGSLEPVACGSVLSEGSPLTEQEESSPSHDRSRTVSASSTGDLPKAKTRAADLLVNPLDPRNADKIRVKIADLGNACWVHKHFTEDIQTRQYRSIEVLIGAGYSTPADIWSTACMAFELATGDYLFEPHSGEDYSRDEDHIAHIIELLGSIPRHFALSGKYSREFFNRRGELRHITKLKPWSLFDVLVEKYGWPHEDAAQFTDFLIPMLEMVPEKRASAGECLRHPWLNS
Sequence of Wee1-like protein kinase 2 (Homo sapiens) (P0C1S8 whole entry, looked up): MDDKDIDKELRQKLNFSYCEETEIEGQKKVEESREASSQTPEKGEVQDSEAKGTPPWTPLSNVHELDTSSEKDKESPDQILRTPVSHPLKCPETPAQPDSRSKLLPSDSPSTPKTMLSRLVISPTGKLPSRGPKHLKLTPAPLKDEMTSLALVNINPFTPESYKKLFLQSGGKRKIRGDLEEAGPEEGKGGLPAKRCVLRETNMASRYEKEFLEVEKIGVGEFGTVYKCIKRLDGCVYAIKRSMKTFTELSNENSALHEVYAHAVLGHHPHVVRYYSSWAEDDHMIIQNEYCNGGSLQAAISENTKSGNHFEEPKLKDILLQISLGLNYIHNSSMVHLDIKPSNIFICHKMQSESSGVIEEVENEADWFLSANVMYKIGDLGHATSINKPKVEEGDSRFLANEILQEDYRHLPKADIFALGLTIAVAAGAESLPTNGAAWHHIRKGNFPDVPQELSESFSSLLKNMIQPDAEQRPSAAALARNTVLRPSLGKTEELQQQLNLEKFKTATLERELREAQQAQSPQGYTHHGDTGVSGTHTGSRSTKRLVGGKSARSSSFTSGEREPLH
Sequence of Phosphatidylinositol 4,5-bisphosphate 3-kinase catalytic subunit beta isoform (Homo sapiens) (P42338 whole entry, looked up, canonical isoform): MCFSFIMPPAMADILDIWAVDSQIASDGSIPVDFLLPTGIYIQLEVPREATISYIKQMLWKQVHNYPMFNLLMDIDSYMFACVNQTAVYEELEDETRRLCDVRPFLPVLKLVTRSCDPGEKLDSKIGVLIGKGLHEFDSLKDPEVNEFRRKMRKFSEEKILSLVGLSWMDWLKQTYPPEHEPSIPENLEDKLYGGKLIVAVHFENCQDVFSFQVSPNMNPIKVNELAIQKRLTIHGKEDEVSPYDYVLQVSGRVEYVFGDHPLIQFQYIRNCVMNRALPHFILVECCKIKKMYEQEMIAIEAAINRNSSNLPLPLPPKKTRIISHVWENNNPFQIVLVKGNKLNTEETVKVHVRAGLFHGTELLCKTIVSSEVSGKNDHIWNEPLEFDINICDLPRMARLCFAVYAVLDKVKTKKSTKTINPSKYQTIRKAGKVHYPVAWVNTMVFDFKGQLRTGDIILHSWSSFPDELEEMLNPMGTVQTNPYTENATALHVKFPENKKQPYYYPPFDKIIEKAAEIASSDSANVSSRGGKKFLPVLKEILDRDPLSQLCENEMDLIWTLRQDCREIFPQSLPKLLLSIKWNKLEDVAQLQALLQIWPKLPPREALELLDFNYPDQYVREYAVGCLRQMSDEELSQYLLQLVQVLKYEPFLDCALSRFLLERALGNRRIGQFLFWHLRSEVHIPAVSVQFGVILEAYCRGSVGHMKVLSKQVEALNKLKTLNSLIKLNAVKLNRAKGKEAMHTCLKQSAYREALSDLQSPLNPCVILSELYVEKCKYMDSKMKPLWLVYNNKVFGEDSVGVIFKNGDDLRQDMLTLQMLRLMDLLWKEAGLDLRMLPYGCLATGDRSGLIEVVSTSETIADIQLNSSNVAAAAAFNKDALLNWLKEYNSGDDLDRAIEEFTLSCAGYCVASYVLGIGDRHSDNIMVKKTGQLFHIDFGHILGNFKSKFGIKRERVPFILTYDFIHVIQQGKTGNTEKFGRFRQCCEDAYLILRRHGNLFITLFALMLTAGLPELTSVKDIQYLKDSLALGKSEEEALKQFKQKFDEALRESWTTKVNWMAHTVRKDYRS
Sequence of Calcium/calmodulin-dependent protein kinase type II subunit delta (Homo sapiens) (Q13557 whole entry): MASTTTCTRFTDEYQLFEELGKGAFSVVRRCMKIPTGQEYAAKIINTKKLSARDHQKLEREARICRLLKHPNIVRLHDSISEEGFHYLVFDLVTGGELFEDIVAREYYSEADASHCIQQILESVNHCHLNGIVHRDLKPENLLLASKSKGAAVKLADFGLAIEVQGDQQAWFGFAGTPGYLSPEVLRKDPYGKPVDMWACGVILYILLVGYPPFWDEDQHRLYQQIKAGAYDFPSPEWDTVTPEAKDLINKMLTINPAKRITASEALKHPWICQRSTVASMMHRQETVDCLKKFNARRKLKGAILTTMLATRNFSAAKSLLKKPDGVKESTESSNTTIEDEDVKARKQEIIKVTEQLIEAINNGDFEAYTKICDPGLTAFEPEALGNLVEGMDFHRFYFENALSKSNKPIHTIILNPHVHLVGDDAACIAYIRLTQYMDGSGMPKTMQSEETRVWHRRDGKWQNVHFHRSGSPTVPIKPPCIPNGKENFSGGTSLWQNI

In turn, `CCN1CCN(Cc2ccc(NC(=O)c3ccc(C)c(/C=C/c4cnc5[nH]ccc5c4OC)c3)cc2C(F)(F)F)CC1` came in with a residual activity in test [1] of 100%.

For the compound `CCN1CCN(Cc2ccc(NC(=O)c3ccc(C)c(Oc4ccnc5[nH]ccc45)c3)cc2C(F)(F)F)CC1`, the inhibition result in test [2], in test [3] and in test [4] was “inactive” throughout. Further, in test [5], the inhibition is 13.4%.

`CNc1cc(Oc2cc(C(=O)Nc3cc(N4CCN(C)CC4)cc(C(F)(F)F)c3)ccc2C)ncn1`: the inhibition in test [6] is -5.4%; in test [7], 9.1%.

In general, residual activity refers to the signal under treatment as a percentage of the control signal. A low value points to little activity left. In general, inhibition refers to the drop in the measured response relative to a control, in per cent.
